Legend:
[1] = Lipophilicity, log D of the compound at pH 7.4 after 30 mins by HPLC/UV analysis; format: physicochemical; details: buffer
[2] = Apparent permeability across basolateral to apical side in human Caco2 cells measured at 60 to 120 mins by LC/MS/MS analysis; format: ADME, cell-based; details: for Papp B→A: Caco-2, read-out: permeability; for permeability: Caco-2
[3] = Apparent permeability across apical to basolateral side in human Caco2 cells measured at 60 to 120 mins by LC/MS/MS analysis; format: ADME, cell-based; details: for Papp A→B: Caco-2, read-out: permeability; for permeability: Caco-2
[4] = Half life in dog plasma at 2 uM up to 4 hrs by LC/MS/MS analysis; format: ADME, cell-free, Canis lupus familiaris
[5] = Aqueous solubility of the compound at pH 7.2; format: physicochemical
[6] = Half life in human plasma at 2 uM up to 4 hrs by LC/MS/MS analysis; format: ADME, cell-free
[7] = Half life in rat plasma at 2 uM up to 4 hrs by LC/MS/MS analysis; format: ADME, cell-free
[8] = Oral bioavailability in Beagle dog at 5 mg/kg by HPLC/MS analysis; format: ADME, organism-based, Canis lupus familiaris; details: in vivo
[9] = Volume of distribution at steady state in Beagle dog at 1 mg/kg, iv or 5 mg/kg, po by HPLC/MS analysis; format: ADME, organism-based, Canis lupus familiaris; details: in vivo, read-out: Vdss
[10] = Terminal half life in Beagle dog at 1 mg/kg, iv or 5 mg/kg, po by HPLC/MS analysis; format: ADME, organism-based, Canis lupus familiaris; details: in vivo, read-out: beta t1/2 (converted)
[11] = Terminal half life in Sprague-Dawley rat at 1 mg/kg, iv or 5 mg/kg, po by HPLC/MS analysis; format: ADME, organism-based; details: in vivo, read-out: beta t1/2 (converted)
[12] = Volume of distribution at steady state in Sprague-Dawley rat at 1 mg/kg, iv or 5 mg/kg, po by HPLC/MS analysis; format: ADME, organism-based; details: in vivo, read-out: Vdss
[13] = Clearance in Sprague-Dawley rat at 1 mg/kg, iv or 5 mg/kg, po by HPLC/MS analysis; format: ADME, organism-based; details: in vivo
[14] = Oral bioavailability in Sprague-Dawley rat at 5 mg/kg by HPLC/MS analysis; format: ADME, organism-based; details: in vivo
[15] = Clearance in Beagle dog at 1 mg/kg, iv or 5 mg/kg, po by HPLC/MS analysis; format: ADME, organism-based, Canis lupus familiaris; details: in vivo
[16] = Volume of distribution at steady state in Sprague-Dawley rat at 10 mg/kg, iv or 10 mg/kg, po by HPLC/MS analysis; format: ADME, organism-based; details: in vivo, read-out: Vdss
[17] = Clearance in Sprague-Dawley rat at 10 mg/kg, iv or 10 mg/kg, po by HPLC/MS analysis; format: ADME, organism-based; details: in vivo
[18] = Oral bioavailability in Sprague-Dawley rat at 10 mg/kg by HPLC/MS analysis; format: ADME, organism-based; details: in vivo
[19] = Terminal half life in Sprague-Dawley rat at 10 mg/kg, iv or 10 mg/kg, po by HPLC/MS analysis; format: ADME, organism-based; details: in vivo, read-out: beta t1/2 (converted)

Structure (SMILES) | logD at 0.5 h [1] | Papp B→A [2] [×10⁻⁶ cm/s] | Papp A→B [3] [×10⁻⁶ cm/s] | half-life at 2 µM [4] [h] | half-life at 2 µM [6] [h] | half-life at 2 µM [7] [h] | further results
CC(C)[C@@H]1OC(=O)C2(/C=C/c3ccc4ccc(nc4c3)[C@@H](C)NC(=O)[C@@H]3CCCN(N3)C(=O)[C@H](C)NC1=O)COCCOC2 | 2.1 | 10 | 0.72 | – | – | – | –
CC(C)[C@@H]1NC(=O)C(C)(C)/C=C/c2cc3cc(ccc3cn2)[C@@H](C)OC(=O)[C@@H]2CCCN(N2)C(=O)[C@H](C)NC1=O | 2.1 | 34 | 2.3 | > 25 | > 25 | – | solubility [5]: < 6 µg/mL
CC(C)[C@@H]1NC(=O)C/C=C/c2ccc3ccc(cc3c2)[C@@H](C)OC(=O)[C@@H]2CCCN(N2)C(=O)[C@H](C)NC1=O | 2.5 | 38 | 6.2 | > 25 | > 25 | – | –
CC(C)[C@@H]1OC(=O)C2(/C=C/c3ccc4ccc(nc4c3)[C@@H](C)NC(=O)[C@@H]3CCCN(N3)C(=O)[C@H](C)NC1=O)CCOCC2 | 2.4 | 19 | 3.2 | – | – | – | –
CC(C)[C@@H]1OC(=O)C(C)(C)/C=C/c2cc3cc(ccc3cn2)[C@@H](C)NC(=O)[C@@H]2CCCN(N2)C(=O)[C@H](C)NC1=O | 2 | 7.9 | 0.1 | 12.2 | > 25 | 9.4 | –
CC(C)[C@@H]1NC(=O)CC/C=C/c2cc3cc(ccc3cn2)[C@@H](C)OC(=O)[C@@H]2CCCN(N2)C(=O)[C@H](C)NC1=O | 1.6 | 25 | 0.33 | > 25 | > 25 | 0.133 | –
CO[C@H]1C(=O)N[C@@H](C(C)C)C(=O)N[C@@H](C)C(=O)N2CCC[C@H](N2)C(=O)O[C@H](C)c2cccc(c2)/C=C/CC[C@H]1C | 2.9 | 31 | 12 | 10 | > 25 | 0.0833 | –
CC(C)[C@@H]1NC(=O)C/C=C/c2cc3cc(ccc3cn2)[C@@H](C)OC(=O)[C@@H]2CCCN(N2)C(=O)[C@H](C)NC1=O | 1.1 | 13 | 0.32 | 6.95 | 9.32 | 0.133 | bioavailability [8]: 8%
CC(C)[C@@H]1NC(=O)C(C)(C)/C=C/c2ccc3ccc(nc3c2)[C@@H](C)OC(=O)[C@@H]2CCCN(N2)C(=O)[C@H](C)NC1=O | 2.7 | 21 | 2 | > 25 | 17.1 | 0.25 | solubility [5]: < 6 µg/mL
CC(C)[C@@H]1OC(=O)C(CO)(CO)/C=C/c2ccc3ccc(nc3c2)[C@@H](C)NC(=O)[C@@H]2CCCN(N2)C(=O)[C@H](C)NC1=O | 1 | 0.59 | 0.08 | – | – | – | –
CO[C@H]1CC[C@@]2(/C=C/c3ccc4ccc(nc4c3)[C@@H](C)NC(=O)[C@@H]3CCCN(N3)C(=O)[C@H](C)NC(=O)[C@H](C(C)C)OC2=O)CC1 | 3.1 | 33 | 13 | – | – | – | –
CC(C)[C@@H]1OC(=O)C(C)(C)/C=C/c2ccc3ccc(nc3c2)[C@@H](C)NC(=O)[C@@H]2CCCN(N2)C(=O)[C@H](C)NC1=O | 3.2 | – | – | > 25 | > 25 | 6.87 | Vd [9]: 3.9 L/kg; bioavailability [8]: 100%; half-life [10]: 10 h; half-life [11]: 3.9 h; Vd [12]: 2.5 L/kg; permeability [2]: 47 ×10⁻⁶ cm/s; clearance [13]: 10.8 mL/min/kg; permeability [3]: 17 ×10⁻⁶ cm/s; bioavailability [14]: 90%; clearance [15]: 6 mL/min/kg
CO[C@@H]1/C=C/c2cc3cc(ccc3cn2)[C@@H](C)OC(=O)[C@@H]2CCCN(N2)C(=O)[C@H](C)NC(=O)[C@H](C(C)C)NC(=O)[C@@H]1C | 2.1 | 37 | 4.4 | 17.4 | 12.5 | 0.0833 | –
CC(C)[C@@H]1NC(=O)C/C=C/c2ccc3ccc(nc3c2)[C@@H](C)OC(=O)[C@@H]2CCCN(N2)C(=O)[C@H](C)NC1=O | 2.1 | 3.5 | 1.2 | > 25 | 8.87 | – | –
CC(C)[C@@H]1OC(=O)C2(/C=C/c3ccc4ccc(nc4c3)[C@@H](C)NC(=O)[C@@H]3CCCN(N3)C(=O)[C@H](C)NC1=O)CCS(=O)(=O)CC2 | 1.9 | 12 | 0.48 | – | – | – | –
CC(C)[C@@H]1OC(=O)C2(/C=C/c3ccc4ccc(nc4c3)[C@@H](C)NC(=O)[C@@H]3CCCN(N3)C(=O)[C@H](C)NC1=O)COCOC2 | 2.2 | 13 | 1.5 | > 25 | > 25 | > 25 | Vd [9]: 2.3 L/kg; bioavailability [8]: 55%; Vd [16]: 12 L/kg; half-life [10]: 25 h; clearance [17]: 7 mL/min/kg; bioavailability [18]: 100%; half-life [19]: 24 h; clearance [15]: 1.33 mL/min/kg
CC(C)[C@@H]1OC(=O)C2(/C=C/c3ccc4ccc(nc4c3)[C@@H](C)NC(=O)[C@@H]3CCCN(N3)C(=O)[C@H](C)NC1=O)CCC(O)CC2 (stereo in doubt; 47) | 1.9 | 9.2 | 0.61 | – | – | – | –
CC(C)[C@@H]1OC(=O)C2(/C=C/c3ccc4ccc(nc4c3)[C@@H](C)NC(=O)[C@@H]3CCCN(N3)C(=O)[C@H](C)NC1=O)CCC(O)CC2 (stereo in doubt; 48) | – | – | – | – | – | – | permeability [2]: 7.1 ×10⁻⁶ cm/s; permeability [3]: 0.9 ×10⁻⁶ cm/s

Source: ChEMBL document CHEMBL4152348, “Discovery of a Potent and Orally Bioavailable Cyclophilin Inhibitor Derived from the Sanglifehrin Macrocycle” (J Med Chem, 2018)
